Values quoted from earlier work, collected in patent US5298499A, “S-2-(substituted ethylamino)ethyl phosphorothioates” (Research Triangle Institute, priority 1991, dated 1994).
Where two headings read alike, the source gives them in different places.

What was measured:
[1] = background statement

Row | SMILES | radioprotective activity (literature) | radioprotective activity (in vivo) | uptake in malignant and healthy tissue [1]
1 | NC(=O)CCNCCS [Compound 3, 2-(2.varies.-carbamidoethylamino)ethanethiol] | good radioprotective activity, comparable to that of compound 2 | – | –
2 | NCCCNCCS [Compound 2] | known to be a radioprotective agent | – | –
3 | NCCCNCCSP(=O)(O)O [WR2721, S-2-[3-aminopropylamino]ethylphosphorothioicacid] | – | most effective agent | comparable uptake
